As usually defined, the EC50 is the concentration at which the effect is half-maximal. The term Emax denotes the maximal effect, on the per cent scale that the assay sets.

This note sets out measurements from patent publication US20220041606A1, “POSITIVE ALLOSTERIC MODULATORS OF THE MUSCARINIC ACETYLCHOLINE RECEPTOR M1” (Vanderbilt University, priority 2020, published 2022).

Test [1] concerns the target T1, human mAChR M1 (Homo sapiens, UniProt P11229).
T1 construct: host or cells: CHO-K1 cells (ATCC), stably transfected using Lipofectamine2000
T1 sequence (P11229 1-460): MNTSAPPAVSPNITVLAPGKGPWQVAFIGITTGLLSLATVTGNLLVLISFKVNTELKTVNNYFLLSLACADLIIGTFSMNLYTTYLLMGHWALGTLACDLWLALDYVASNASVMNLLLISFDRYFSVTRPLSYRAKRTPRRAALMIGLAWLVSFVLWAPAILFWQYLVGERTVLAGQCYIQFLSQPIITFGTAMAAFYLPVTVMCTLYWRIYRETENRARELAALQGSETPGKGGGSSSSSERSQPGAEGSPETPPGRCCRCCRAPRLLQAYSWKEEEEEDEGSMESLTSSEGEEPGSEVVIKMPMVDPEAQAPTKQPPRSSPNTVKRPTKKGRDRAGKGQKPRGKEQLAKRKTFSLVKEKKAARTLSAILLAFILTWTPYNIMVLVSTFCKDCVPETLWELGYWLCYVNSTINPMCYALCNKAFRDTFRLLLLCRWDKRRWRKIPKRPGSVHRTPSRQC
In words: mAChR M1 cell-based functional assay (calcium mobilization), agonist activity upon compound addition. The following applies: CHO-K1 cells expressing hM1; for EC50: compound alone, before acetylcholine addition; for Emax: relative to the maximum for acetylcholine. The source says:
(§1) Chinese hamster ovary (CHO-K1) cells stably expressing rat (r)M1 were purchased from the American Type Culture Collection and cultured according to their indicated protocol. CHO cells stably expressing human (h)M2, hM3, and hM5 were described previously (Levey, et al., 1991); hM1 and hM4 cDNAs were purchased from Missouri S&T cDNA Resource; rM4 cDNA was provided by T. L. Bonner (National Institutes of Health, Bethesda, MID). rM2 and rM3 were cloned from a rat brain cDNA library and sequence verified. hM1, rM2, rM3, hM4, and rM4 cDNAs were used to stably transfect CHO-K1 cells purchased from the American Type Culture Collection using Lipofectamine2000. To make stable rM2, hM2, rM3, hM4, and rM4 cell lines for use in calcium mobilization assays, these cells also were stably transfected with a chimeric G-protein (Gqi5) (provided by B. R. Conklin, University of California, San Francisco) using Lipofectamine 2000. rM1, hM1, rM3, hM3, rM5, and hM5 cells were grown in Ham's F-12 medium containing 10% heat-inactivated fetal bovine serum (FBS), 20 mM HEPES, and 50 μg/mL G418 sulfate. rM2-Gq15, hM2-Gqi5, and hM4-Gqi5 cells were grown in the same medium also containing 500 μg/mL Hygromycin B. Stable rM4-Gqi5 cells were grown in DMEM containing 10% heat-inactivated FBS, 20 mM HEPES, 400 μg/mL G418 sulfate, and 500 μg/mL Hygromycin B.
(§2) For high throughput measurement of agonist-evoked increases in intracellular calcium, CHO-K1 cells stably expressing muscarinic receptors were plated in growth medium lacking G418 and hygromycin at 15,000 cells/20 μL/well in Greiner 384-well black-walled, tissue culture (TC)-treated, clear-bottom plates (VWR). Cells were incubated overnight at 37° C. and 5% CO2. The next day, cells were washed using an ELX 405 (BioTek) with four washes (80 μL) of assay buffer then aspirated to 20 μL. Next, 20 μL of 16 μM Fluo-4/acetoxymethyl ester (Invitrogen, Carlsbad, Calif.) prepared as a 2.3 mM stock in DMSO and mixed in a 1:1 ratio with 10% (w/v) Pluronic F-127 and diluted in assay buffer was added to the wells and the cell plates were incubated for 50 min at 37° C. and 5% CO2. Dye was removed by washing with the ELX 405 (four 80 μL washes of assay buffer) then aspirated to 20 μL. Compound master plates were formatted in an 11 point CRC format (1:3 dilutions) in 100% DMSO with a starting concentration of 10 mM using the BRAVO liquid handler (Agilent). Test compound CRCs were then transferred to daughter plates (240 nL) using the Echo acoustic plate reformatter (Labcyte, Sunnyvale, Calif.) and then diluted into assay buffer (40 μL) to a 2× stock using a Thermo Fisher Combi (Thermo Fisher Scientific, Waltham, Mass.).
(§3) Calcium flux was measured using the Functional Drug Screening System (FDSS) 6000 (Hamamatsu Corporation, Tokyo, Japan) as an increase in the fluorescent static ratio. Compounds were applied to cells (20 μL, 2×) using the automated system of the FDSS 6000 at 4 s into the 300 s protocol and the data were collected at 1 Hz. At 144 s into the 300s protocol, 10 μL of an EC20 concentration of the muscarinic receptor agonist acetylcholine was added (5×), followed by the addition of 12 μL an EC80 concentration of acetylcholine at the 230 s time point (5×). Agonist activity was analyzed as a concentration-dependent increase in calcium mobilization upon compound addition. Emax values for agonist activity are expressed relative to the maximum for acetylcholine. Positive allosteric modulator activity was analyzed as a concentration-dependent increase in the EC20 acetylcholine response. Antagonist activity was analyzed as a concentration-dependent decrease in the EC80 acetylcholine response. Concentration-response curves were generated using a four-parameter logistical equation in XLfit curve fitting software (IDBS, Bridgewater, N.J.) for Excel (Microsoft, Redmond, Wash.) or Prism (GraphPad Software, Inc., San Diego, Calif.). […]
On the technique in general: Calcium assays in cells follow changes in intracellular calcium, usually with a dye or a luminescent sensor.

Test [2] addresses T1, human mAChR M1. Description: mAChR M1 cell-based functional assay (calcium mobilization), PAM activity: increase in the EC20 acetylcholine response. The following applies: CHO-K1 cells expressing hM1; potentiation of EC20 acetylcholine response.
Text: as §1, §2, §3

As to `Cc1cn2c(=O)n(Cc3c(F)cc(-c4cccc5nn(C)cc45)cc3F)cc(C(=O)N[C@H]3CCCC[C@@H]3O)c2n1` [Compound B30, 6-(2,6-difluoro-4-(2-methyl-2H-indazol-4-yl)benzyl)-N-((1S,2S)-2-hydroxycyclohexyl)-2-methyl-5-oxo-5,6-dihydroimidazo[1,2-c]pyrimidine-8-carboxamide], in test [1], the EC50 was greater than 10 µM and the Emax is less than 5%. Also, in test [2], the EC50 is 5.89 µM and the Emax is 27%.

Take `Cn1cc(-c2ccc(Cn3cc(C(=O)N[C@H]4CCCC[C@@H]4O)c4nccn4c3=O)cn2)cn1` [Compound B11, N-((1S,2S)-2-hydroxycyclohexyl)-6-((6-(1-methyl-1H-pyrazol-4-yl)pyridin-3-yl)methyl)-5-oxo-5,6-dihydroimidazo[1,2-c]pyrimidine-8-carboxamide]: in test [1], the half-maximal effective concentration (EC50) is 5 µM and the Emax was 45%. Besides, in test [2], the EC50 came to 0.21 µM and the maximum response (Emax) turned out to be 63%.

On to `Cn1nccc1-c1ccc(Cn2cc(C(=O)N[C@H]3CCCC[C@@H]3O)c3nccn3c2=O)c(F)c1` [Compound B32, 6-(2-fluoro-4-(1-methyl-1H-pyrazol-5-yl)benzyl)-N-((1S,2S)-2-hydroxycyclohexyl)-5-oxo-5,6-dihydroimidazo[1,2-c]pyrimidine-8-carboxamide], for which the EC50 in test [1] was greater than 10 µM; in test [2], 0.89 µM. Moreover, the Emax in test [1] was less than 5%; in test [2], 80%.

`Cn1cc(-c2ccc(Cn3cc(C(=O)N[C@H]4CCCCC[C@@H]4O)c4ncccc4c3=O)cn2)cn1` [Compound A18, N-((1S,2S)-2-hydroxycycloheptyl)-6-((6-(1-methyl-1H-pyrazol-4-yl)pyridin-3-yl)methyl)-5-oxo-5,6-dihydro-1,6-naphthyridine-8-carboxamide]: in test [1], the EC50 was greater than 10 µM and the Emax is less than 5%. Also, in test [2], the EC50 is 1.66 µM and the maximal effect (Emax) is 60%.

As to `Cn1nccc1-c1ccc(Cn2cc(C(=O)N[C@H]3CCOC[C@@H]3O)c3ncccc3c2=O)c(F)c1` [Compound A45, 6-(2-fluoro-4-(1-methyl-1H-pyrazol-5-yl)benzyl)-N-((3R,4S)-3-hydroxytetrahydro-2H-pyran-4-yl)-5-oxo-5,6-dihydro-1,6-naphthyridine-8-carboxamide], in test [1], the half-maximal effective concentration (EC50) is greater than 10 µM and the maximal effect (Emax) was less than 5%. Besides, in test [2], the 50% effective concentration (EC50) was 4.37 µM and the maximum response (Emax) worked out at 70%.

Regarding `Cc1nc(-c2ccc(Cn3cc(C(=O)N[C@H]4CCCC[C@@H]4O)c4ncccc4c3=O)cc2)co1` [Compound A20, N-((1S,2S)-2-hydroxycyclohexyl)-6-(4-(2-methyloxazol-4-yl)benzyl)-5-oxo-5,6-dihydro-1,6-naphthyridine-8-carboxamide], the concentration giving a half-maximal response (EC50) in test [1] is greater than 10 µM; in test [2], 0.78 µM. Moreover, the Emax in test [1] is less than 5%; in test [2], 63%.

With `Cn1cc(-c2ccc(Cn3cc(C(=O)N[C@H]4CCCC[C@@H]4O)c4occc4c3=O)c(F)c2)cn1` [Compound D13, 5-(2-fluoro-4-(1-methyl-1H-pyrazol-4-yl)benzyl)-N-((1S,2S)-2-hydroxycyclohexyl)-4-oxo-4,5-dihydrofuro[3,2-c]pyridine-7-carboxamide], in test [1], the 50% effective concentration (EC50) was greater than 10 µM and the Emax was 11%. For the same molecule, in test [2], the EC50 was determined as 2.12 µM and the maximal response (Emax) is 81%.

Consider `O=C(N[C@H]1CCCCC[C@@H]1O)c1cn(Cc2ccc(-n3cccn3)cc2)c(=O)c2nccnc12` [Compound A62, 6-(4-(1H-pyrazol-1-yl)benzyl)-N-((1S,2S)-2-hydroxycycloheptyl)-5-oxo-5,6-dihydropyrido[3,4-b]pyrazine-8-carboxamide], for which, in test [1], the half-maximal effective concentration (EC50) is greater than 10 µM and the Emax is less than 5%. For the same molecule, in test [2], the 50% effective concentration (EC50) was no less than 10 µM and the Emax came to 53%.

`Cc1cnn(C)c1-c1ccc(Cn2cc(C(=O)N[C@H]3CCOC[C@@H]3O)c3nccn3c2=O)c(F)c1` [Compound B34, 6-(4-(1,4-dimethyl-1H-pyrazol-5-yl)-2-fluorobenzyl)-N-((3R,4S)-3-hydroxytetrahydro-2H-pyran-4-yl)-5-oxo-5,6-dihydroimidazo[1,2-c]pyrimidine-8-carboxamide]: in test [1], the concentration giving a half-maximal response (EC50) was greater than 10 µM and the Emax is less than 5%. Moreover, in test [2], the half-maximal effective concentration (EC50) is no less than 10 µM and the maximal effect (Emax) was found to be 44%.

With `Cn1cc(-c2ccc(Cn3cc(C(=O)N[C@H]4CCCC[C@@H]4O)c4ncccc4c3=O)c(F)c2)cn1` [Compound A7, 6-(2-fluoro-4-(1-methyl-1H-pyrazol-4-yl)benzyl)-N-((1S,2S)-2-hydroxycyclohexyl)-5-oxo-5,6-dihydro-1,6-naphthyridine-8-carboxamide], the figures for the maximum response (Emax) in test [1] and in test [2] were 12% and 89%, respectively. For the same molecule, in test [2], the half-maximal effective concentration (EC50) came to 0.29 µM.

For the molecule `Cn1cc2c(-c3cc(F)c(Cn4cc(C(=O)N[C@H]5CCOC[C@@H]5O)c5sccc5c4=O)c(F)c3)cccc2n1` [Compound D30, 5-(2,6-difluoro-4-(2-methyl-2H-indazol-4-yl)benzyl)-N-((3R,4S)-3-hydroxytetrahydro-2H-pyran-4-yl)-4-oxo-4,5-dihydrothieno[3,2-c]pyridine-7-carboxamide], the 50% effective concentration (EC50) in test [1] was greater than 10 µM; in test [2] it was 4.52 µM. In addition, the Emax in test [1] was less than 5%; in test [2] it was 69%.

Turning to `O=C(N[C@H]1CCC[C@@H]1O)c1cn(Cc2ccc(-n3cccn3)cc2)c(=O)c2nccnc12` [Compound A61, 6-(4-(1H-pyrazol-1-yl)benzyl)-N-((1S,2S)-2-hydroxycyclopentyl)-5-oxo-5,6-dihydropyrido[3,4-b]pyrazine-8-carboxamide], in test [1], the half-maximal effective concentration (EC50) was greater than 10 µM and the maximal response (Emax) was less than 5%. In test [2], the EC50 was no less than 10 µM and the maximal response (Emax) turned out to be 33%.

With `Cn1nccc1-c1ccc(Cn2cc(C(=O)N[C@H]3CCOC[C@@H]3O)c3nccn3c2=O)c(F)c1` [Compound B31, 6-(2-fluoro-4-(1-methyl-1H-pyrazol-5-yl)benzyl)-N-((3R,4S)-3-hydroxytetrahydro-2H-pyran-4-yl)-5-oxo-5,6-dihydroimidazo[1,2-c]pyrimidine-8-carboxamide], in test [1], the EC50 is greater than 10 µM and the Emax was found to be 6%. Moreover, in test [2], the EC50 was determined as 1.13 µM and the Emax is 82%.
